A short description of data set [1]: Cytotoxicity assay (CellTiter-Glo) on normal human dermal fibroblasts. The conditions noted are these: normal human dermal fibroblasts (NHDF). The data set is classed as cell-based. As to the method:
The cytotoxicity of the compounds was evaluated in nontumor normal human dermal fibroblasts (NHDF) purchased from ATCC (PCS-201-012, Manassas, VA, USA). The cells were negatively tested for the presence of mycoplasma (cat. #: LT07-318 MycoAlert Mycoplasma Detection kit, Lonza). The cells were cultivated in DMEM high glucose 4.5 g/L medium (cat. #: R8758, Merck, Germany). The medium was supplemented with 10% fetal bovine serum (cat. #: F7524, Merck, Germany; inactivated at 56 °C for 30 min) and 1.0% of L-glutamine (cat. #: G7513, Merck, Germany) without antibiotics. Cells were seeded in 384-well format white micro plates (cat. #: 164610, Nunc, Thermo Fisher Scientific, USA) at a concentration of 60,000 cells per mL and left to rest overnight. Next day, 1 and 10 μM concentrations of the tested compounds were added in triplicates. The cells were cultivated at 37 °C and 5% CO2 for 72 h after which a luminescent cell viability assay (CellTiter-Glo 2.0, cat. #: Promega, Madison, USA) was added. The plate was left on a shaker (350 rpm) in the dark for 20 min at RT. Luminescence was measured by a Spark multimode reader from Tecan (Tecan Group Ltd., Switzerland). The signal of the compound-treated cells was related to the value of the untreated control, which was arbitrarily set to 100% viability.

The nature of data set [2]: Plasma stability assay, human plasma. Type of data set: in vitro ADME. The conditions noted are these: pooled plasma; human plasma, 5 μM, 37 °C; read-out: Plasma stability % remaining at 6 h, hum. As to the method: […] The reactions were terminated by adding 4 vol of ice-cold methanol, and the samples were then mixed vigorously, frozen at −20 °C for 1 h, and left overnight at 8 °C. After that, the samples were centrifuged, and the supernatant was analyzed by means of LC–MS/MS Sciex 6500 triple quadrupole (Sciex, Framingham, MA, USA). Zero time points were prepared by adding ice-cold methanol to the compound prior to the addition of the plasma.

The nature of data set [3]: Plasma stability assay, rat plasma. The data set is classed as in vitro ADME.
Data set [4] is described as follows: Microsomal stability, human liver microsomes. The data set is classed as in vitro ADME. Particulars: pooled liver microsomes, pH 7.4; human liver microsomes 0.5 mg/mL, 10 μM compound; read-out: Microsomal stability CLint, hum. As to the method:
. Zero time points were prepared by adding ice-cold methanol to a mixture of the compound with cofactors prior to the addition of microsomes. […]. Intrinsic clearance (CLint) was calculated using the following formula: [drawing 1] where V = incubation volume per milligram of microsomal protein (μL/mg) and t1/2 = microsomal half-life.

Data set [5] can be described thus: in vitro. The data set is classed as in vitro ADME. The conditions noted are these: human, Caco-2. How it is done: A Transwell system consisting of two compartments separated by a monolayer of differentiated Caco-2 cells was employed for the intestinal permeability evaluation. Thanks to the ability of Caco-2 cells to become polarized, bidirectional transport (A–B and B–A) could be measured and the efflux ratio calculated.
The transepithelial bidirectional transport of tested compounds (5 μM, pH 7.4/7.4) across the Caco-2 monolayers was studied using the BD BioCoat HTS Caco-2 assay system (BD Biosciences, Bedford, MA) as described in detail elsewhere.[47] Aliquots were collected from the donor and acceptor compartment at the end of the transport period (3 h), the integrity of monolayers was verified using Lucifer Yellow dye, and the compounds were quantified using LC–MS/MS (Triple Quad 6500+, Sciex). The apparent permeability coefficient (Papp) was calculated from the following equation: Papp = (dQ/dt)/C0 × A, where dQ/dt is the rate of absorption of the drug across the cells, C0 is the donor compartment concentration at time zero, and A is the area of the monolayer. The efflux ratio was expressed as (Papp B–A)/(Papp A–B). Recovery (%) was determined as (total compound mass in donor and receiver compartments at the end of the incubation/initial compound mass in the donor compartment) × 100.

The nature of data set [6]: in vitro. The conditions noted are these: dog, MDCK-MDR1.
Procedure: (§1) Canine MDR1 Knockout, Human MDR1 Knockin MDCKII cells (Sigma-Aldrich) were employed to estimate CNS permeability of the compounds. Briefly, the cells were seeded at a density of 30,000 cells per 24-well plate insert of the Transwell sandwich (CellQART, SABEU GmbH&Co.KG, Germany). They were left to differentiate for 5 days with medium exchange every other day. […] The treated cells were then returned to the incubator for 2 h at 37 °C. After that, samples were collected from both apical inserts and basolateral wells and analyzed using LC–MS (Triple Quad 6500+, Sciex). LY permeation was used to check for the integrity of monolayer in each sample. […] Only wells displaying LY permeability <2% were qualified for compound transport quantification. Apparent permeability coefficients (Papp's), efflux ratios, and recoveries for the compounds were calculated as described in Section 4.2.8. The data represent means ± SD of two independent experiments performed in triplicate.
The test system of the next data set is P-gp (human MDR1). As to the kind of experiment: in vitro. Particulars: dog, MDCK-MDR1.

Read-outs that look alike come from different tables or passages of the source.

As a reminder, the viability is a per cent measure of how many cells are alive, often set against a control. The amount remaining is what is left of the initial amount, in per cent. Broadly, the microsomal CLint is the capacity of the preparation to metabolise the compound, expressed as a volume cleared per time. For orientation: Papp A→B means the apparent permeability from the apical to the basolateral side of a cell layer. In general, Papp B→A refers to how fast a substance crosses the layer from the basolateral side.

Procedure for MDCKII-MDR1 cells: as §1
Procedure for P-gp (human MDR1): as §1

With `N[C@H]1C[C@H](OC(=O)[C@@H]2[C@H]3C[C@H]4c5[nH]c6ccccc6c5CCN4C[C@@H]3CC[C@@H]2O)C1` [Compound 4n, 17-α-Hydroxyyohimban-16-α-carboxylic Acid trans-3-Aminocyclobutyl Ester], the viability at 72 h, 1 µM in data set [1] (1 uM) was 93%. Besides, the viability at 72 h, 10 µM in data set [1] (10 uM, read-out: NHDF viability at 10 uM (supplement csv)) worked out at 89%; in data set [1] (10 μM, untreated control = 100%, read-out: NHDF Viability 10 μM) it was 89%. In addition, the fraction remaining at 6 h, 5 μM in data set [2] turned out to be 99%; in data set [3], 84 ± 2%. For the same compound, in data set [4], the microsomal CLint at 10 µM came to 2 ± 1 µL/min/mg. Moreover, the recovery at 3 h, 5 µM in the data set “in vitro [5]” was determined as 103%. For the same compound, in the data set “in vitro [5]” (5 μM, pH 7.4/7.4, 3 h, read-out: Caco-2 permeability Papp A–B), the Papp A→B at 3 h, 5 µM was 3 ± 1 ×10⁻⁶ cm/s. Further, the “recovery (B–A) in MDCKII-MDR1 cells” value with MDCKII-MDR1 cells (B–A direction) is recorded as 98%. The P-gp transporter substrate result with MDCKII-MDR1 cells (MDCKII-MDR1 cells) is on record as “substrate for the P-gp transporter”. Also, the recovery at 2 h, 10 µM in the data set “in vitro [6]” is 100%. In the data set on P-gp (human MDR1), the Papp A→B at 2 h, 10 µM was determined as 0.9 ×10⁻⁶ cm/s. Further, in the data set with P-gp (human MDR1), the apparent permeability from basolateral to apical (Papp B→A) at 2 h, 10 µM came out at 3.5 ± 1.4 ×10⁻⁶ cm/s.

Values taken from PMC11215778 (Journal of Medicinal Chemistry, 2024).
